Counter-ions that a name gives are not always drawn.
Molecular target: SARS-CoV-2 Mac1 (Severe acute respiratory syndrome coronavirus 2, UniProt P0DTD1)
Experiment: biochemical
Conditions: for inhibition at 100 µM: read-out: %inhibition; for %inhibition: 100 µM, inhibitor

SMILES | inhibition at 100 µM | %inhibition
CCOC(=O)[N-]c1c[n+](N2CCOCC2)no1 [Molsidomine] | 0% | 
C[C@@H]1C[C@H]2[C@@H]3CCC4=CC(=O)C=C[C@]4(C)[C@@]3(Cl)[C@@H](O)C[C@]2(C)[C@@]1(OC(=O)c1ccco1)C(=O)CCl [Mometasone furoate] | 7.49% | 
Oc1ccc(OCc2ccccc2)cc1 [Monobenzone] | 0% | 
N=C(N)NC(=N)N1CCOCC1 [Moroxydine HCl] | 0.197% | 
CCOc1cc(N)c(Cl)cc1C(=O)NCC1CN(Cc2ccc(F)cc2)CCO1 (stereo not drawn) [Mosapride] | 0% | 
CCCN(CCC)C(=O)C1=Cc2ccc(-c3ccc(C(=O)N4CCCC4)cc3)cc2N=C(N)C1 [Motolimod (VTX-2337)] | 0% | 
CO/N=C1\C[C@]2(C[C@@H]3C[C@@H](C/C=C(\C)C[C@@H](C)/C=C/C=C4\CO[C@@H]5[C@H](O)C(C)=C[C@@H](C(=O)O3)[C@]45O)O2)O[C@H](/C(C)=C/C(C)C)[C@H]1C [Moxidectin] | 7.63% | 
COc1c(N2C[C@@H]3CCCN[C@@H]3C2)c(F)cc2c(=O)c(C(=O)O)cn(C3CC3)c12 [Moxifloxacin HCl] |  | 0%
COc1c(N2C[C@@H]3CCCN[C@@H]3C2)c(F)cc2c(=O)c(C(=O)O)cn(C3CC3)c12 [Moxifloxacin] |  | 6.66%
COc1nc(C)nc(Cl)c1NC1=NCCN1 [Moxonidine] | 0% | 
Cc1ccccc1C(=O)Nc1ccc(C(=O)N2CCCC(N(C)C)c3ccccc32)cc1 (stereo not drawn) [Mozavaptan] | 21.9% | 
FC(F)(F)c1ccc(/C=C/c2nc(COc3ccc(CCCCn4ccnn4)cc3)co2)cc1 [Mubritinib (TAK 165)] | 0% | 
C/C(=C\C(=O)OCCCCCCCCC(=O)O)C[C@@H]1OC[C@H](C[C@@H]2O[C@H]2[C@@H](C)[C@H](C)O)[C@@H](O)[C@H]1O [Mupirocin calcium] |  | 3.887%
C/C(=C\C(=O)OCCCCCCCCC(=O)O)C[C@@H]1OC[C@H](C[C@@H]2O[C@H]2[C@@H](C)[C@H](C)O)[C@@H](O)[C@H]1O [Mupirocin] |  | 0%
COc1c(C)c2c(c(O)c1C/C=C(\C)CCC(=O)OCCN1CCOCC1)C(=O)OC2 [Mycophenolate Mofetil] | 0% | 
COc1c(C)c2c(c(O)c1C/C=C(\C)CCC(=O)O)C(=O)OC2 [Mycophenolic acid] | 0% | 
COc1ccc2[nH]c([S@@+]([O-])Cc3ncc(C)c(OC)c3C)nc2c1 [NEXIUM (esomeprazole magnesium)] |  | 21.09%
COc1ccc2cc(CCC(C)=O)ccc2c1 [Nabumetone] | 0% | 
CC1CCc2c(N3CCC(O)CC3)c(F)cc3c(=O)c(C(=O)O)cn1c23 (stereo not drawn) [Nadifloxacin] | 0% | 
N=C(N)Nc1ccc(C(=O)Oc2ccc3cc(C(=N)N)ccc3c2)cc1 [Nafamostat Mesylate] | 0% | 
CCOc1ccc2ccccc2c1C(=O)N[C@@H]1C(=O)N2[C@@H]1SC(C)(C)[C@@H]2C(=O)O [Nafcillin Sodium] | 0% | 
COc1ccccc1N1CCN(CC(O)COc2cccc3ccccc23)CC1 (stereo not drawn) [Naftopidil DiHCl] |  | 0%
COc1ccccc1N1CCN(CC(O)COc2cccc3ccccc23)CC1 (stereo not drawn) [Naftopidil] |  | 1.252%
CCn1cc(C(=O)O)c(=O)c2ccc(C)nc21 [Nalidixic acid] | 0% | 
C=C1CC[C@@]2(O)[C@H]3Cc4ccc(O)c5c4[C@@]2(CCN3CC2CC2)[C@H]1O5 [Nalmefene HCl] | 0% | 

SMILES | inhibition at 100 µM | %inhibition
O=C1CC[C@@]2(O)[C@H]3Cc4ccc(O)c5c4[C@@]2(CCN3CC2CC2)[C@H]1O5 [Naltrexone HCl] | 0% | 
CC(=O)c1cc2c(o1)C(=O)c1ccccc1C2=O [Napabucasin] | 6.24% | 
c1ccc2c(CC3=NCCN3)cccc2c1 [Naphazoline HCl] | 8.42% | 
COc1ccc2cc([C@H](C)C(=O)O)ccc2c1 [Naproxen Sodium] | 0% | 
CNS(=O)(=O)CCc1ccc2[nH]cc(C3CCN(C)CC3)c2c1 [Naratriptan HCl] | 0% | 
C[C@@H]1C/C=C/C=C/C=C/C=C/[C@H](O[C@@H]2O[C@H](C)[C@@H](O)[C@H](N)[C@@H]2O)C[C@@H]2O[C@](O)(C[C@@H](O)C[C@H]3O[C@@H]3/C=C/C(=O)O1)C[C@H](O)[C@H]2C(=O)O [Natamycin] | 0% | 
CC(C)[C@H]1CC[C@H](C(=O)N[C@H](Cc2ccccc2)C(=O)O)CC1 [Nateglinide] | 0% | 
O[C@H](CNC[C@@H](O)[C@H]1CCc2cc(F)ccc2O1)[C@@H]1CCc2cc(F)ccc2O1 [Nebivolol HCl] | 0% | 
CCc1nn(CCCN2CCN(c3cccc(Cl)c3)CC2)c(=O)n1CCOc1ccccc1 [Nefazodone hydrochloride] | 14% | 
Cc1cccc(C)c1NC(=O)CN1CCCC1=O [Nefiracetam] | 8.32% | 
CN1CCOC(c2ccccc2)c2ccccc2C1 (stereo not drawn) [Nefopam HCl] | 0% | 
COc1nc(N)nc2c1ncn2[C@@H]1O[C@H](CO)[C@@H](O)[C@@H]1O [Nelarabine] | 50.5% | 
Cc1c(O)cccc1C(=O)N[C@@H](CSc1ccccc1)[C@H](O)CN1C[C@H]2CCCC[C@H]2C[C@H]1C(=O)NC(C)(C)C [Nelfinavir Mesylate] | 0.155% | 
NC[C@@H]1O[C@H](O[C@H]2[C@@H](O)[C@H](O[C@@H]3[C@@H](O)[C@H](N)C[C@H](N)[C@H]3O[C@H]3O[C@H](CN)[C@@H](O)[C@H](O)[C@H]3N)O[C@@H]2CO)[C@H](N)[C@@H](O)[C@@H]1O [Neomycin sulfate] | 0% | 
CN(C)C(=O)Oc1cccc([N+](C)(C)C)c1 [Neostigmine Bromide] | 0% | 
NC(=O)Cc1cccc(C(=O)c2ccccc2)c1N [Nepafenac] | 0% | 
CCOc1cc2ncc(C#N)c(Nc3ccc(OCc4ccccn4)c(Cl)c3)c2cc1NC(=O)/C=C/CN(C)C [Neratinib (HKI-272)] | 4.82% | 
CCCCCOc1ccccc1/C(=C\SC)n1ccnc1 [Neticonazole Hydrochloride] | 0% | 
CCN[C@@H]1C[C@H](N)[C@@H](O[C@H]2OC(CN)=CC[C@H]2N)[C@H](O)[C@H]1O[C@H]1OC[C@](C)(O)[C@H](NC)[C@H]1O [Netilmicin Sulfate] | 0% | 
Cc1ccccc1-c1cc(N2CCN(C)CC2)ncc1N(C)C(=O)C(C)(C)c1cc(C(F)(F)F)cc(C(F)(F)F)c1 [Netupitant] | 6.47% | 
Cc1ccnc2c1NC(=O)c1cccnc1N2C1CC1 [Nevirapine] | 20.6% | 
O=C(CCNNC(=O)c1ccncc1)NCc1ccccc1 [Nialamide] | 25% | 
COC(=O)C1=C(C)NC(C)=C(C(=O)OCCN(C)Cc2ccccc2)C1c1cccc([N+](=O)[O-])c1 (stereo not drawn) [Nicardipine] | 0% | 
O=C(NCCO[N+](=O)[O-])c1cccnc1 [Nicorandil] | 15.7% | 
NC(=O)c1cccnc1 [Nicotinamide (Vitamin B3)] | 16% | 

SMILES | inhibition at 100 µM | %inhibition
CN1CCC[C@H]1c1cccnc1 [Nicotine Ditartrate] | 0% | 
O=C(O)c1cccnc1 [Nicotinic Acid] | 28.8% | 
COC(=O)C1=C(C)NC(C)=C(C(=O)OC)C1c1ccccc1[N+](=O)[O-] [Nifedipine] | 16% | 
Cc1c(NC(=O)c2cccnc2)c(=O)n(-c2ccccc2)n1C [Nifenazone] | 3.55% | 
O=C(O)c1cccnc1Nc1cccc(C(F)(F)F)c1 [Niflumic acid] | 11% | 
O=C(N/N=C/c1ccc([N+](=O)[O-])o1)c1ccc(O)cc1 [Nifuroxazide] | 0.953% | 
CCN(CC)C(=O)c1cccnc1 [Nikethamide] | 0% | 
Cc1cn(-c2cc(NC(=O)c3ccc(C)c(Nc4nccc(-c5cccnc5)n4)c3)cc(C(F)(F)F)c2)cn1 [Nilotinib (AMN-107)] |  | 40.49%
Cc1cn(-c2cc(NC(=O)c3ccc(C)c(Nc4nccc(-c5cccnc5)n4)c3)cc(C(F)(F)F)c2)cn1 [Nilotinib hydrochloride] |  | 3.764%
CC1(C)NC(=O)N(c2ccc([N+](=O)[O-])c(C(F)(F)F)c2)C1=O [Nilutamide] | 3.89% | 
COC(=O)C1=C(C#N)NC(C)=C(C(=O)OC(C)C)C1c1cccc([N+](=O)[O-])c1 (stereo not drawn) [Nilvadipine] | 0% | 
CS(=O)(=O)Nc1ccc([N+](=O)[O-])cc1Oc1ccccc1 [Nimesulide] | 0% | 
COCCOC(=O)C1=C(C)NC(C)=C(C(=O)OC(C)C)C1c1cccc([N+](=O)[O-])c1 (stereo not drawn) [Nimodipine] | 21.8% | 
Cc1ncc(CNC(=O)N(CCCl)N=O)c(N)n1 [Nimustine Hydrochloride] | 0% | 
COC(=O)c1ccc2c(C(=Nc3ccc(N(C)C(=O)CN4CCN(C)CC4)cc3)c3ccccc3)c(O)[nH]c2c1 [Nintedanib (BIBF 1120)] |  | 17.91%
COC(=O)c1ccc2c(C(=Nc3ccc(N(C)C(=O)CN4CCN(C)CC4)cc3)c3ccccc3)c(O)[nH]c2c1 [Nintedanib Ethanesulfonate Salt] |  | 8.812%
NC(=O)c1cccc2cn(-c3ccc([C@@H]4CCCNC4)cc3)nc12 [Niraparib (MK-4827) tosylate] |  | 14.33%
NC(=O)c1cccc2cn(-c3ccc([C@@H]4CCCNC4)cc3)nc12 [Niraparib (MK-4827)] |  | 4.387%
COC(=O)C1=C(C)NC(C)=C(C(=O)OCC(C)C)C1c1ccccc1[N+](=O)[O-] (stereo not drawn) [Nisoldipine] | 16.9% | 
CC(=O)Oc1ccccc1C(=O)Nc1ncc([N+](=O)[O-])s1 [Nitazoxanide] | 0% | 
O=C1CCCC(=O)C1C(=O)c1ccc(C(F)(F)F)cc1[N+](=O)[O-] [Nitisinone] | 2.19% | 
CCOC(=O)C1=C(C)NC(C)=C(C(=O)OC)C1c1cccc([N+](=O)[O-])c1 (stereo not drawn) [Nitrendipine] | 4.31% | 
NC(=O)N/N=C/c1ccc([N+](=O)[O-])o1 [Nitrofural] | 0% | 
O=C1CN(/N=C/c2ccc([N+](=O)[O-])o2)C(=O)N1 [Nitrofurantoin] | 4.04% | 
O=[N+]([O-])c1ccc(O)c2ncccc12 [Nitroxoline] | 0% | 

From doi:10.1101/2021.10.07.463234v2 (biorxiv, 2021)
